Experimental data from US9029414B2, “Triterpenoid compounds and methods of use thereof” (Biotechnology Research Corporation, priority 2008, dated 2015).

Assays:
[1] = tested on: NGF, BDNF, NT-3 and NT-4 expression in cortical neurons; test: Neurotrophin gene expression (real-time PCR) in cortical neurons following NMDA treatment; type: cell-based; settings: 24 hrs pre-treatment, then NMDA 20 μM 20 min; vs DMSO+NMDA
Procedure: Cortical neurons were incubated with DA001 or the DMSO control for 24 hrs, followed by treatment with NMDA (20 μM) or water for 20 min. Gene expression was normalized against the house-keeping gene, hypoxanthine phosphoribosyltransferase 1 (HPRT1) and glyceraldehyde 3-phosphate dehydrogenase (GAPDH) and compared to the control (DMSO) with NMDA treatment. Relative changes in gene expression induced by DA001+NMDA was compared with DMSO+NMDA.
Cortical neurons of 11 DIV-12 DIV were pre-incubated with DA001 or DMSO for 24 hours. Cells were washed in Locke's medium without magnesium for 15 min, followed by the treatment of NMDA (20 μM) or water for 20 min. Neurons were incubated with normal growth medium and total RNA were extracted at different time intervals after or without NMDA treatment. Total RNA was extracted using RNeasy Mini kit (Qiagen) according to the manufacturer's protocol, and was reverse-transcribed into single-stranded cDNA with SuperScript II Reverse Transcriptase (Invitrogen) and oligo-dT primers. Real-time Quantitative PCR was performed using Power SYBR Green PCR Master Mix (Applied Biosystems) on the Mx3000P Real-Time PCR System (Stratagene). Thermal cycling was initiated with a 10-min denaturation step at 95° C., followed by 40 cycles of 95° C. for 30 sec, 60° C. for 1 min and 72° C. for 30 sec. The final product was subjected to a Meltcurve detection at the end of the reaction. Regulation of the gene expression was normalized against home gene, hypoxanthine phosphoribosyltransferase 1 (HPRT1) and glyceraldehyde 3-phosphate dehydrogenase (GAPDH). Real-time PCR primers are as follows.
Cortical neurons were pre-treated with DA001 after which the cells were subjected to NMDA insult. The expression of neurotrophins was measured at three different time intervals. DA001 induced NGF, BDNF and NT-3 expression but not NT-4 under the same conditions. FIG. 3 illustrates that cortical neurons were incubated with DA001 or the DMSO control for 24 hrs, followed by treatment with NMDA (20 μM) or water for 20 min. […]

human MC4 receptor = human MC4 receptor (Homo sapiens, UniProt P32245); test: Radioligand competition binding assay, MC4
Procedure: DA001 was evaluated against 109 receptor binding assays and 17 enzyme assays, comprising of selective, central and peripheral therapeutically-relevant targets. Radioligand competition assays were conducted whereby DA001 was tested at one concentration (10 μM) in duplicate. […] It could compete with the radioligand [^125I-NDP-alpha-melanocyte-stimulating hormone (α-MSH)] binding for MC1 and MC4 but not MC3 and MC5 nor the related family, the melanin concentrating hormone receptors (MCH1 and MCH2).
To determine the IC50 for DA001 to inhibit α-MSH binding on MC1 and MC4 receptor, the compound was further characterized by a dose-dependent study. DA001 was evaluated with 8 concentrations on MC1 and MC4 receptor binding assays.
The specific ligand binding to the receptors is defined as the difference between the total binding and the nonspecific binding determined in the presence of an excess of unlabelled ligand. The results are expressed as a percent of control specific binding [(measured specific binding/control specific binding)×100] and as a percent inhibition of control specific binding {100−[(measured specific binding/control specific binding)×100]} obtained in the presence of DA001. The IC50 values (concentration causing a half-maximal inhibition of control specific binding) and Hill coefficients (nH) were determined by non-linear regression analysis of the competition curves generated with mean replicate values using Hill equation curve fitting (Y=D+[(A−D)/(1+(C/C50)nH)], where Y=specific binding, D=minimum specific binding, A=maximum specific binding, C=compound concentration, C50=IC50, and nH=slope factor). This analysis was performed using a software developed at Cerep (Hill software) and validated by comparison with data generated by the commercial software SigmaPlot® 4.0 for Windows® (© 1997 by SPSS Inc.).

[2] = tested on: LPS-induced TNF-α in serum; test: Murine model of lipopolysaccharide-induced cytokine production; type: in vivo, Swiss-Webster mice
Procedure: This is a contract research performed by Washington Biotechnology Inc., Columbia, Md., protocol 1077. Swiss-Webster mice (female, Harlan Sprague-Dawley, 5-6 weeks) were weighed and dosed orally with 10 ml/kg water, prednisolone at 10 mg/kg, or DA021 at 30 mg/kg or 100 mg/kg. Thirty minutes after oral dosing, lipopolysaccharides (LPS) at 2 mL/kg was injected. Two hours after LPS injection, the mice were anesthetized and exsanguinated into serum separator micro-container tubes. The blood was processed to serum. The serum samples were assayed for tumor necrosis factor-α (TNFα) concentration by ELISA (Pierce) according to the manufacturer's protocol.
Evaluation of the efficacy and potency of orally administered DA021 to inhibit the lipopolysaccharide (LPS)-induced release of tumor necrosis factor-α (TNF-α) in mice was carried out. LPS is a widely used endotoxin, isolated from the bacteria, E. coli in inducing acute inflammation in an organism. Prednisolone is a synthetic corticosteroid drug that is commonly used in inflammatory reactions. It is a broad range immunosuppressant. Based on FIG. 29, there was a marked increase in the amount of TNF-α in serum upon LPS treatment in mice.
Two hours after LPS injection, the serum was collected from the mice. The serum samples were assayed for tumor necrosis factor-α (TNFα) concentration by ELISA (Pierce) according to the manufacturer's protocol. N=10, significance was calculated versus LPS+vehicle using the Student's T-test, *=p≦0.05, #=p≦1×10^−4.

Sequence of human MC4 receptor (P32245 whole entry): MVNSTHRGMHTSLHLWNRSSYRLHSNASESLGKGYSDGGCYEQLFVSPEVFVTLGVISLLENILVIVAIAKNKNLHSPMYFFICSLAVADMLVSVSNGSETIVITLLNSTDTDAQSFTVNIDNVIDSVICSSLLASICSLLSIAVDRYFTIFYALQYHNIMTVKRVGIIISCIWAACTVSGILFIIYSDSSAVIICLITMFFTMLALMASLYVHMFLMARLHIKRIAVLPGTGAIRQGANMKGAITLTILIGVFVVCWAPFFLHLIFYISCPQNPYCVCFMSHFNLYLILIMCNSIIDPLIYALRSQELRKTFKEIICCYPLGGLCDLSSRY

Row | SMILES | BDNF expression [1] | NGF expression [1] | NT-3 expression [1] | Ki (human MC4 receptor) | IC50 (human MC4 receptor; 8 concentrations) | nH (human MC4 receptor; Hill coefficient) | inhibition of the LPS response (serum TNF-α) ([2]; 30 mg/kg orally 30 min before LPS) | inhibition of the LPS response (serum TNF-α) ([2]; 100 mg/kg orally 30 min before LPS)
1 | C=C(C)[C@@H]1CC[C@]2(C(=O)O)CC[C@]3(C)C(CC[C@@H]4[C@@]5(C)CC[C@H](O[C@@H]6OC[C@H](O)[C@H](O)[C@H]6O[C@@H]6O[C@@H](C)[C@H](O)[C@@H](O)[C@H]6O)[C@@](C)(CO)[C@@H]5CC[C@]43C)[C@@H]12 (stereo partly drawn) [DA001, 3-O-[α-L-rhamnopyranosyl-(1→2)-α-L-arabinopyranosyl]-3,23-dihydroxy-20(29)-lupen-28-oic acid] | induced | induced | induced | 6.3 µM | 6.8 µM | 1.3 | – | –
2 | C=C(C)[C@@H]1CC[C@]2(/C=N/O)CC[C@]3(C)C(CCC4[C@@]5(C)CCC(=O)[C@@](C)(CO)[C@@H]5CC[C@]43C)C12 (some centres unmarked) [DA021] | – | – | – | – | – | – | 73% | 77%
